# In patent publication US20210077529A1, “T-CELL EXHAUSTION, METHODS & COMPOSITIONS RELATING THERETO” (MEMORIAL SLOAN KETTERING CANCER CENTER, priority 2018, published 2021):
# “Also recorded” adds a separate entry of the source.
# Experiments:
# Format in all cases: cell-based, mouse
# [1] = test system: chronically stimulated T-cells; test: Proliferation of chronically stimulated T-cells (polyclonal in vitro exhaustion model, Coulter counter counts); details: CD3+ T cells, chronic anti-CD3/anti-CD28 stimulation days 2-8, 10 mM N-acetylcysteine
# Protocol: FIG. 13A-B. N-acetylcysteine restores proliferation of chronically stimulated T-cells. FIG. 13A—schematic representation of model/method. Isolated CD3+ T cells were stimulated for 2 days with plate-bound anti-CD3 and anti-CD28. Following 2-day stimulation, cells were either incubated in IL-2 alone or serially re-plated on plates coated with anti-CD3 and anti-CD28 every 2 days for an additional 6 days in the presence or absence of 10 mM N-acetylcysteine. Cells were counted every 2 days using a Coulter counter. […] FIG. 3A and FIG. 3F provide schematic representations of a polyclonal T cell exhaustion model in which a generalized TCR and CD28 stimulus is used. Utilizing a generalized TCR and CD28 stimulus has multiple advantages. […] We therefore evaluated whether adding N-acetylcysteine (10 mM) to T-cell media every 48 hours during days 2-8 of chronic stimulation would be sufficient to reverse the effects of chronic stimulation on T-cell growth and effector function. […] To determine this, T-cells that had been acutely or chronically stimulated in the presence or absence of 10 mM N-acetylcysteine were assessed for Tcf7 expression via real-time quantitative PCR. […]
# [2] = test system: chronically stimulated T-cells; test: Cytokine production of chronically stimulated T-cells after re-stimulation (flow cytometry); details: CD3+ T cells, 8 days of culture, N-acetylcysteine 10 mM
# Protocol: (§1) FIG. 14A-D. N-acetylcysteine reverses endogenous T-cell exhaustion. Isolated CD3+ T cells were stimulated acutely or chronically as described elsewhere herein in the without anti-PD-L1 (FIG. 14A) or in presence or absence of anti-PD-L1 (FIG. 14B) and/or N-acetylcysteine (10 mM) (FIG. 14C). Following 8 days of culture, cells were re-stimulated for cytokine production (above) or co-cultured with tumor cells expressing specific antigen.
# The expression of the inhibitory receptors PD-1, LAG-3, and PD-L1 and the effector cytokines IFNγ, TNFα and IL2 was analyzed by flow cytometry. Briefly, cells that were stimulated acutely or chronically for 8 days as described herein were re-stimulated after overnight rest using 50 ng/mL phorbol myristate acetate (PMA) and 500 ng/mL ionomycin. […]
# The in vitro system that developed and described herein allowed for metabolic evaluations that led directly to the identification of oxidative stress as a hallmark of T-cell exhaustion. We therefore evaluated whether adding N-acetylcysteine (10 mM) to T-cell media every 48 hours during days 2-8 of chronic stimulation would be sufficient to reverse the effects of chronic stimulation on T-cell growth and effector function. […] To determine this, T-cells that had been acutely or chronically stimulated in the presence or absence of 10 mM N-acetylcysteine were assessed for Tcf7 expression via real-time quantitative PCR. […]
# [3] = test system: tumor cells expressing specific antigen; test: Killing of tumor cells expressing specific antigen by chronically stimulated T-cells (co-culture)
# Protocol: as §1
# Ultimately, the hallmark of T-cell exhaustion in the context of both chronic viral infections and cancer requires a loss of effector function, defined as the absence of target cell killing. Therefore, it was imperative to establish that exhausted cells generated using this in vitro system were not able to kill target cells. […] 24 hours later luminescence was measured using a luminometer. Killing efficacy was determined by luminescence relative to B16 cells co-cultured with T-cells in the absence of specific peptide.
# The in vitro system that developed and described herein allowed for metabolic evaluations that led directly to the identification of oxidative stress as a hallmark of T-cell exhaustion. We therefore evaluated whether adding N-acetylcysteine (10 mM) to T-cell media every 48 hours during days 2-8 of chronic stimulation would be sufficient to reverse the effects of chronic stimulation on T-cell growth and effector function. […]
# [4] = test system: exhausted CAR-T cells; test: Proliferative capacity of exhausted CD19-specific CAR-T cells isolated from lymphoma-bearing mice; details: exhausted CD19 CAR-T cells isolated 14 days after transfer into A20 lymphoma mice; 10 mM in culture media
# Description: (§2) FIG. 15A-C N-acetylcysteine reverses CAR-T cell exhaustion. Exhausted CAR-T cells were generated by transferring CD19-specific CAR-T cells into mice bearing CD19-expressing A20 lymphoma cells. After 14 days, CAR-T cells were isolated from mouse spleens and interrogated for proliferative capacity, oxidative stress, and cytokine production. […] The in vitro system that developed and described herein allowed for metabolic evaluations that led directly to the identification of oxidative stress as a hallmark of T-cell exhaustion. We therefore evaluated whether adding N-acetylcysteine (10 mM) to T-cell media every 48 hours during days 2-8 of chronic stimulation would be sufficient to reverse the effects of chronic stimulation on T-cell growth and effector function. […] FIGS. 12-16. Moreover, this strategy was also effective in reversing the exhaustion of chimeric antigen receptor (CAR) T-cells. For this assay, T-cells retrovirally infected to express a chimeric antigen receptor targeting CD19 were adoptively transferred into mice who had previously received A20 B-cell lymphoma cells. This protocol is known to generate “exhausted” CAR T-cells by Day 14 following CAR T-cell transfer. […] FIG. 16. To determine this, T-cells that had been acutely or chronically stimulated in the presence or absence of 10 mM N-acetylcysteine were assessed for Tcf7 expression via real-time quantitative PCR. […]
# [5] = test system: exhausted CAR-T cells; test: Oxidative stress (reactive oxygen species) in exhausted CAR-T cells; details: exhausted CD19 CAR-T cells isolated 14 days after transfer, re-stimulated with anti-CD3 and anti-CD28; 10 mM
# Description: as §2
# [6] = test system: exhausted CAR-T cells; test: Cytokine production of exhausted CAR-T cells; details: exhausted CD19 CAR-T cells isolated 14 days after transfer; 10 mM
# Description: as §2
# [7] = test system: Tcf7; test: Tcf7 expression in chronically stimulated T-cells (real-time quantitative PCR); details: chronically stimulated CD3+ T cells, 8 days, 10 mM N-acetylcysteine
# Description: FIG. 16A-B. N-acetylcysteine restores T-cell memory. Isolated CD3+ T cells were stimulated acutely or chronically as described herein. […] Tumor-infiltrating T-cells from patients with melanoma who received checkpoint inhibitors were extracted and analyzed by single-cell RNA-seq. […] The in vitro system that developed and described herein allowed for metabolic evaluations that led directly to the identification of oxidative stress as a hallmark of T-cell exhaustion. We therefore evaluated whether adding N-acetylcysteine (10 mM) to T-cell media every 48 hours during days 2-8 of chronic stimulation would be sufficient to reverse the effects of chronic stimulation on T-cell growth and effector function. […] FIGS. 12-16. Moreover, this strategy was also effective in reversing the exhaustion of chimeric antigen receptor (CAR) T-cells. For this assay, T-cells retrovirally infected to express a chimeric antigen receptor targeting CD19 were adoptively transferred into mice who had previously received A20 B-cell lymphoma cells. This protocol is known to generate “exhausted” CAR T-cells by Day 14 following CAR T-cell transfer. […] FIG. 16. To determine this, T-cells that had been acutely or chronically stimulated in the presence or absence of 10 mM N-acetylcysteine were assessed for Tcf7 expression via real-time quantitative PCR. […]
# [8] = test system: chronically stimulated T-cells; test: Intracellular ophthalmate levels in chronically stimulated T-cells (LC-MS); details: chronically stimulated CD3+ T cells, 8 days, 10 mM N-acetylcysteine
# Protocol: FIG. 18A-C. Ophthalmate is a biomarker for oxidative stress in exhausted T-cells and is reversed by N-acetylcysteine. Isolated CD3+ T cells were stimulated acutely or chronically as described herein in the presence or absence of N-acetylcysteine (10 mM). After 8 days, cells were analyzed for intracellular ophthalmate levels by LC-MS. […] Ophthalmate levels were higher in chronically stimulated T-cells (FIG. 18B) and this was reversed by administration of N-acetylcysteine (FIG. 18C).
smiles,measurement,setting,value
CC(=O)N[C@@H](CS)C(=O)O [N-acetylcysteine],T-cell proliferation under chronic stimulation,[1],fully reverses the impairment in proliferation; also recorded: fully reverse
same,cytokine production of chronically stimulated T-cells,[2],effectively reversed; also recorded: fully reverse
same,anti-PD-1 responsiveness of chronically stimulated T-cells,[3]; 10 mM N-acetylcysteine every 48 hours during days 2-8 of chronic stimulation,fully restored
same,tumor / target cell killing by chronically stimulated T-cells,"[3]; 8 days of culture, co-cultured with tumor cells expressing specific antigen, N-acetylcysteine 10 mM",effectively reversed; also recorded: fully restored
same,CAR-T cell proliferation,[4],enhanced CAR-T cell proliferation; also recorded: allowed CAR T-cells to proliferate
same,oxidative stress (reactive oxygen species) in CAR-T cells,[5],reducing oxidative stress; also recorded: could be reversed
same,CAR-T cell cytokine production,[6],enhanced; also recorded: allowed CAR T-cells to proliferate and produce cytokine
same,Tcf7 expression (memory marker),[7],restored Tcf7 expression; also recorded: largely restored
same,intracellular ophthalmate levels,[8],reversed
